EP4603105A1, “PHARMACEUTICAL COMPOSITION CONTAINING CYCLIC COMPOUND HAVING SELECTIVE KRAS INHIBITORY EFFECT AGAINST HRAS AND NRAS” (CHUGAI SEIYAKU KABUSHIKI KAISHA, priority 2022, dated 2024)
pIC50, pKd: −log10 of the molar value. Where two headings read alike, the source gives them in different places.

Columns and labels:
[1] = test system: human lung cancer strain NCI-H441; experiment: NCI-H441 cell proliferation inhibitory activity (CellTiter-Glo, 4 days); type: cell-based; conditions: read-out: NCl-H441 IC50
How it was run: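 Signal came from […] measured per well once the reagent was added. Beforehand, cells were cultured at 37°C and 5% carbon dioxide on a compound series serially diluted in dimethyl sulfoxide.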

HRAS wild-type protein = HRAS wild-type protein (Homo sapiens, UniProt P01112); experiment: Binding to HRAS by surface plasmon resonance (SPR), KD and KD ratio to KRAS
Chain of HRAS wild-type protein (P01112 whole entry): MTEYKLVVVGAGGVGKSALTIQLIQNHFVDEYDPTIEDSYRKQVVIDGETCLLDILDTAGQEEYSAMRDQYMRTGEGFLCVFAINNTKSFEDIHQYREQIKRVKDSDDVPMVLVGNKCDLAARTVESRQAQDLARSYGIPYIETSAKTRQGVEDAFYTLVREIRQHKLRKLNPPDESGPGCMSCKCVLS
How it was run: (§1)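 Each cycle, GDP-bound biotin-Avi RAS was captured (~100–300 RU), compound concentrations were injected low to high for 75 s each at 100 µL/min, then the chip was regenerated. Buffer: HBS pH 7.4, 10 mM MgCl2, 10 µM GDP, 1 mM DTT, 4% DMSO; 30°C. KD from a 1:1 binding model.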

[2] = biological target: GDP-bound NRAS wild-type protein (Homo sapiens, UniProt P01111); experiment: Binding to NRAS by surface plasmon resonance (SPR), KD and KD ratio to KRAS
Chain of GDP-bound NRAS wild-type protein (P01111 whole entry): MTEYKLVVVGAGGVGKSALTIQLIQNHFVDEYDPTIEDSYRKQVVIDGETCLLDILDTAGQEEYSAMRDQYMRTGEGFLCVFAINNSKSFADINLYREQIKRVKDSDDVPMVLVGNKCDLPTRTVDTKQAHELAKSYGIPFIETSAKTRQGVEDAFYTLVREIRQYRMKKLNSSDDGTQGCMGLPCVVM
How it was run: as §1

[3] = biological target: GDP-bound KRAS wild-type protein (Homo sapiens, UniProt P01116); experiment: Binding to KRAS by surface plasmon resonance (SPR), dissociation constant KD
Chain of GDP-bound KRAS wild-type protein (P01116 1-188 isoform P01116-2): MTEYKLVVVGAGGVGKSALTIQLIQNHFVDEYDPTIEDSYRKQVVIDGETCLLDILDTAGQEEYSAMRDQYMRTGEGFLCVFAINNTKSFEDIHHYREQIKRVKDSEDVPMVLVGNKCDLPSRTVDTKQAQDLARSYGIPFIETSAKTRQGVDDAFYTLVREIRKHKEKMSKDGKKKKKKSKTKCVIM
How it was run: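 SPR, 30°C: Avi-biotin RAS·GDP captured via Biotin CAPture (~100–300 RU); running buffer HBS pH 7.4, 1 mM DTT, 10 mM MgCl2, 0.01% Tween 20, 10 µM GDP, 4% DMSO. Single-cycle kinetics, 100 µL/min, 75 s injections; 1:1 model → KD.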

[4] = ratio of KD for HRAS wild-type protein to KD for KRAS
[5] = ratio of KD for GDP-bound NRAS wild-type protein to KD for KRAS
[6] = 50% proliferation inhibitory concentration, four days
[7] = ratio of KD with respect to HRAS wild-type protein to KD with respect to KRAS
[8] = ratio of KD with respect to GDP-bound NRAS wild-type protein to KD with respect to KRAS
[9] = Single Cycle Kinetics, 1:1 binding model

| SMILES | pIC50 ([1]; NCI-H441 cells, 4 days) | HRAS /KRAS (HRAS wild-type protein; [4]) | NRAS /KRAS [2, 5] | pKd ([3]; 1:1 binding model) | pKd ([3]; Single Cycle Kinetics) | pIC50 [1, 6] | HRAS /KRAS (HRAS wild-type protein; [7]) | NRAS /KRAS [2, 8] | pKd [3, 9] |
| --- | --- | --- | --- | --- | --- | --- | --- | --- | --- |
| CC[C@H](C)[C@@H]1NC(=O)[C@H](COC)N(C)C(=O)C[C@@H](C(=O)N(C)C)N(C)C(=O)[C@H](C2CCCC2)N(C)C(=O)C2(CC(C)(C)C2)NC(=O)[C@@H]2C[C@@H](OC3CCC3)CN2C(=O)[C@H](CCc2cc(F)c(C(F)(F)F)c(F)c2)NC(=O)CN(C)C(=O)[C@H](CC2CCC(F)(F)CC2)N2CC/C=C\C[C@@H](C2=O)N(C)C(=O)CN(C2CC2)C1=O [PP2622] | 7.36 | B (a compound having 3 or more and less than 10 is denoted as B) | A (a compound having 10 or more and less than 20 is denoted as A) | 9.28 |  |  |  |  |  |
| CCC[C@H]1C(=O)N[C@@H](C2CCCC2)C(=O)N(C)CC(=O)N(C)[C@H]2C/C=C\CCN(C2=O)[C@@H](Cc2ccc(C)cc2)C(=O)N(C)CC(=O)N[C@@H](CCc2ccc(C(F)(F)F)c(Cl)c2)C(=O)N2CC3(CC3)C[C@H]2C(=O)N(C)C2(CCC2)C(=O)N(C)[C@@H]([C@@H](C)CC)C(=O)N(C)[C@H](C(=O)N(C)C)CC(=O)N1C [PP3326] | 7.90 | A (a compound having 10 or more and less than 20 is denoted as A) | A (a compound having 10 or more and less than 20 is denoted as A) |  | 9.66 |  |  |  |  |
| CCO[C@@H]1C[C@H]2C(=O)NC3(CCC3)C(=O)N(C)[C@@H](C3CCCC3)C(=O)N(C)[C@H](C(=O)N(C)C)CC(=O)N(C)[C@@H](Cc3cccs3)C(=O)N[C@@H]([C@@H](C)CC)C(=O)N(C)CC(=O)N(C)[C@H]3CCCCCN(C3=O)[C@@H](Cc3ccc(C(F)(F)F)cc3)C(=O)N(C)CC(=O)N[C@@H](CCc3cc(F)c(C(F)(F)F)c(F)c3)C(=O)N2C1 [PP1169] |  |  |  |  |  | 7.13 | B (a compound having 3 or more and less than 10 is denoted as B) | B (a compound having 3 or more and less than 10 is denoted as B) | 9.49 |
| CCCOC[C@H]1C(=O)N[C@@H]([C@@H](C)CC)C(=O)N(C)CC(=O)N(C)[C@H]2C/C=C\CCN(C2=O)[C@@H](Cc2ccc(C(F)(F)F)cc2)C(=O)N(C)CC(=O)N[C@@H](CCc2cc(F)c(C(F)(F)F)c(F)c2)C(=O)N2C[C@H](OCC)C[C@H]2C(=O)NC2(CC(C)(C)C2)C(=O)N(C)[C@@H](C2CCCC2)C(=O)N(C)[C@H](C(=O)N(C)C)CC(=O)N1C [PP1398] |  |  |  |  |  | 8.64 | A (a compound having 10 or more and less than 20 is denoted as A) | A (a compound having 10 or more and less than 20 is denoted as A) | 10.49 |
| CCC[C@H]1C(=O)N[C@@H]([C@@H](C)CC)C(=O)N(C2CC2)CC(=O)N(C)[C@H]2C/C=C\CCN(C2=O)[C@@H](Cc2ccc(C(F)(F)F)cc2)C(=O)N(C)CC(=O)N[C@@H](CCc2ccc(C(F)(F)F)c(OC)c2)C(=O)N2CC[C@H](OC)[C@H]2C(=O)N(C)C2(CCC2)C(=O)N(C)[C@@H](C2CCCC2)C(=O)N(C)[C@H](C(=O)N(C)C)CC(=O)N1C [PP3239] | 8.19 | A (a compound having 10 or more and less than 20 is denoted as A) | A (a compound having 10 or more and less than 20 is denoted as A) |  | 9.64 |  |  |  |  |
| CCO[C@@H]1C[C@H]2C(=O)NC3(CC(C)(C)C3)C(=O)N(C)[C@@H](C3CCCC3)C(=O)N(C)[C@H](C(=O)N(C)C)CC(=O)N[C@@H](CC3CC3)C(=O)N[C@@H]([C@@H](C)CC)C(=O)N(C)CC(=O)N(C)[C@H]3C/C=C\CCN(C3=O)[C@@H](Cc3ccc(C(F)(F)F)cc3)C(=O)N(C)CC(=O)N[C@@H](CCc3ccc(C(F)(F)F)c(OC)c3)C(=O)N2C1 [PP3448] | 7.74 | A (a compound having 10 or more and less than 20 is denoted as A) | A (a compound having 10 or more and less than 20 is denoted as A) |  | 9.70 |  |  |  |  |
| CCC(CC)[C@H]1C(=O)N(C)[C@H](C(=O)N(C)C)CC(=O)N(C)[C@@H](COC)C(=O)N[C@@H]([C@@H](C)CC)C(=O)N(C2CC2)CC(=O)N(C)[C@H]2C/C=C\CCN(C2=O)[C@@H](CC2CCC(F)(F)CC2)C(=O)N(C)CC(=O)N[C@@H](CCc2ccc(Cl)c(Cl)c2)C(=O)N2C[C@H](OC(C)C)C[C@H]2C(=O)NC2(CC(C)(C)C2)C(=O)N1C [PP2525] | 6.85 | A (a compound having 10 or more and less than 20 is denoted as A) | AA (a compound having 20 or more is denoted as AA) | 8.42 |  |  |  |  |  |
| CC[C@H](C)[C@@H]1NC(=O)[C@H](COC)N(C)C(=O)C[C@@H](C(=O)N(C)C)N(C)C(=O)[C@H](C2CCCC2)N(C)C(=O)C2(CC(C)(C)C2)NC(=O)[C@@H]2C[C@H](C)CN2C(=O)[C@H](CCc2ccc(C(F)(F)F)c(OC)c2)NC(=O)CN(C)C(=O)[C@H](Cc2ccc(C)cc2)N2CC/C=C\C[C@@H](C2=O)N(C)C(=O)[C@@H]2C[C@H](C)CN2C1=O [PP2386] | 7.55 | B (a compound having 3 or more and less than 10 is denoted as B) | A (a compound having 10 or more and less than 20 is denoted as A) | 8.92 |  |  |  |  |  |
| CCO[C@@H]1C[C@H]2C(=O)NC3(CC(C)(C)C3)C(=O)N(C)[C@@H](C3CCCC3)C(=O)N(C)[C@H](C(=O)N(C)C)CC(=O)N[C@@H](CC(C)C)C(=O)N[C@@H]([C@@H](C)CC)C(=O)N(C)CC(=O)N(C)[C@H]3C/C=C\CCN(C3=O)[C@@H](Cc3ccc(C(F)(F)F)cc3)C(=O)N(C)CC(=O)N[C@@H](CCc3cc(F)c(C(F)(F)F)c(F)c3)C(=O)N2C1 [PP3455] | 7.82 | A (a compound having 10 or more and less than 20 is denoted as A) | A (a compound having 10 or more and less than 20 is denoted as A) |  | 9.96 |  |  |  |  |
| CCO[C@@H]1C[C@H]2C(=O)NC3(CCCC3)C(=O)N(C)[C@@H](C3CCCC3)C(=O)N(C)[C@H](C(=O)N(C)C)CC(=O)N(C)[C@@H](C)C(=O)N[C@@H]([C@@H](C)CC)C(=O)N(C)CC(=O)N(C)[C@H]3C/C=C\CCN(C3=O)[C@@H](CC3CCC(F)(F)CC3)C(=O)N(C)CC(=O)N[C@@H](CCc3cc(F)c(C(F)(F)F)c(F)c3)C(=O)N2C1 [PP1456] |  |  |  |  |  | 7.05 | A (a compound having 10 or more and less than 20 is denoted as A) | A (a compound having 10 or more and less than 20 is denoted as A) | 9.92 |
| CCCOC[C@H]1C(=O)N[C@@H]([C@@H](C)CC)C(=O)N(C)CC(=O)N(C)[C@H]2C/C=C\CCN(C2=O)[C@@H](Cc2ccc(C)cc2)C(=O)N(C)CC(=O)N[C@@H](CCc2ccc(C(F)(F)F)c(Cl)c2)C(=O)N2C[C@@H](C)C[C@H]2C(=O)NC2(CC(C)(C)C2)C(=O)N(C)[C@@H](C2CCCC2)C(=O)N(C)[C@H](C(=O)N(C)C)CC(=O)N1C [PP2453] | 8.04 | A (a compound having 10 or more and less than 20 is denoted as A) | A (a compound having 10 or more and less than 20 is denoted as A) | 10.05 |  |  |  |  |  |
| CCC[C@H]1C(=O)N[C@@H]([C@@H](C)CC)C(=O)N2CCC[C@H]2C(=O)N(C)[C@H]2C/C=C\CCN(C2=O)[C@@H](CC2CCC(F)(F)CC2)C(=O)N(C)CC(=O)N[C@@H](CCc2ccc(C(F)(F)F)c(OC)c2)C(=O)N2C[C@@H](C)C[C@H]2C(=O)N(C)C2(CCC2)C(=O)N(C)[C@@H](C2CCCC2)C(=O)N(C)[C@H](C(=O)N(C)C)CC(=O)N1C [PP2380] | 8.68 | A (a compound having 10 or more and less than 20 is denoted as A) | A (a compound having 10 or more and less than 20 is denoted as A) | 9.07 |  |  |  |  |  |
| CCC[C@H]1C(=O)N[C@@H]([C@@H](C)CC)C(=O)N(C)CC(=O)N(C)[C@H]2C/C=C\CCN(C2=O)[C@@H](Cc2ccc(C(F)(F)F)cc2)C(=O)N(C)CC(=O)N[C@@H](CCc2cc(F)c(C(F)(F)F)c(F)c2)C(=O)N2CC3(CC3)C[C@H]2C(=O)NC2(CCC2)C(=O)N(C)[C@@H](C2CCCC2)C(=O)N(C)[C@H](C(=O)N(C)C)CC(=O)N1C [PP3436] | 8.34 | A (a compound having 10 or more and less than 20 is denoted as A) | A (a compound having 10 or more and less than 20 is denoted as A) |  | 10.23 |  |  |  |  |
| CCOC[C@H]1C(=O)N[C@@H]([C@@H](C)CC)C(=O)N(C)CC(=O)N(C)[C@H]2C/C=C\CCN(C2=O)[C@@H](Cc2ccc(C)cc2)C(=O)N(C)CC(=O)N[C@@H](CCc2ccc(C(F)(F)F)c(OC)c2)C(=O)N2C[C@@H](C)C[C@H]2C(=O)NC2(CC(C)(C)C2)C(=O)N(C)[C@@H](C2CCCC2)C(=O)N(C)[C@H](C(=O)N(CC)CC)CC(=O)N1C [PP2405] | 8.07 | A (a compound having 10 or more and less than 20 is denoted as A) | A (a compound having 10 or more and less than 20 is denoted as A) | 9.51 |  |  |  |  |  |
